# Reference: ChEMBL document CHEMBL4765455, “Design, synthesis, and biological evaluations of novel 3-amino-4-ethynyl indazole derivatives as Bcr-Abl kinase inhibitors with potent cellular antileukemic activity” (Eur J Med Chem, 2020)
# pIC50: −log10 of the molar value.
# Columns and labels:
# [1] = biological target: Serine/threonine-protein kinase B-raf (Homo sapiens, UniProt P15056); assay: Inhibition of BRAF (unknown origin) in presence of ATP
# [2] = biological target: Dual specificity mitogen-activated protein kinase kinase 1 (Homo sapiens) (UniProt Q02750); assay: Inhibition of MEK1 (unknown origin) at 1 uM relative to control
# [3] = biological target: Serine/threonine-protein kinase Chk1 (Homo sapiens) (UniProt O14757); assay: Inhibition of CHK1 (unknown origin) at 1 uM relative to control
# [4] = biological target: Tyrosine-protein kinase SYK (Homo sapiens) (UniProt P43405); assay: Inhibition of SYK (unknown origin) at 1 uM relative to control
# [5] = Half life in ICR mouse at 5 mg/kg, iv measured up to 8 hrs by LC-MS/MS analysis; assay type: ADME, organism-based; conditions: in vivo
# [6] = AUClast in ICR mouse at 5 mg/kg, iv measured up to 8 hrs by LC-MS/MS analysis; assay type: ADME, organism-based; set-up: route intravenous, dose 5 mg/kg, time <=8; conditions: in vivo
# [7] = Oral bioavailability in ICR mouse at 10 mg/kg measured up to 8 hrs by LC-MS/MS analysis; assay type: ADME, organism-based; conditions: in vivo
# Homo sapiens [8] = species: Homo sapiens; assay: Selectivity index, ratio of IC50 for human ERG to EC50 for ABL1 (unknown origin) expressed in human HEK293 cells; assay type: cell-based
# [9] = biological target: Tyrosine-protein kinase JAK2 (Homo sapiens) (UniProt O60674); assay: Inhibition of JAK2 (unknown origin) at 1 uM relative to control
# [10] = biological target: Bcr/Abl fusion protein (Homo sapiens) (UniProt P00519+P11274); assay: Inhibition of Bcr-Abl in human K562 cells assessed as reduction in Bcr-Abl phosphorylation incubated for 1 hr by Western blotting analysis; assay type: cell-based; conditions: dose 0.003-0.3 µM
# [11] = biological target: Hepatocyte growth factor receptor (Homo sapiens) (UniProt P08581); assay: Inhibition of c-MET (unknown origin) at 1 uM relative to control
# [12] = biological target: Macrophage colony-stimulating factor 1 receptor (Homo sapiens, UniProt P07333); assay: Inhibition of FMS (unknown origin) in presence of ATP
# Homo sapiens [13] = species: Homo sapiens; assay: Selectivity index, ratio of IC50 for BRAF (unknown origin) to IC50 for Bcr-Abl (unknown origin)
# [14] = Cmax in ICR mouse at 10 mg/kg, po measured up to 8 hrs by LC-MS/MS analysis; assay type: ADME, organism-based; set-up: route oral, dose 10 mg/kg, time <=8; conditions: in vivo
# [15] = biological target: Receptor-type tyrosine-protein kinase FLT3 (Homo sapiens, UniProt P36888); assay: Inhibition of FLT3 (unknown origin) in presence of ATP
# CCRF-CEM = assay: Antiproliferative activity against human CCRF-CEM cells assessed as cell growth inhibition at 10 uM measured after 48 hrs by SRB assay relative to control; assay type: functional; conditions: read-out: GI
# [16] = biological target: Proto-oncogene tyrosine-protein kinase ROS (Homo sapiens) (UniProt P08922); assay: Inhibition of ROS/ROS1 (unknown origin) at 1 uM relative to control
# Hepatocyte growth factor receptor (Homo sapiens), sequence (P08581 whole entry): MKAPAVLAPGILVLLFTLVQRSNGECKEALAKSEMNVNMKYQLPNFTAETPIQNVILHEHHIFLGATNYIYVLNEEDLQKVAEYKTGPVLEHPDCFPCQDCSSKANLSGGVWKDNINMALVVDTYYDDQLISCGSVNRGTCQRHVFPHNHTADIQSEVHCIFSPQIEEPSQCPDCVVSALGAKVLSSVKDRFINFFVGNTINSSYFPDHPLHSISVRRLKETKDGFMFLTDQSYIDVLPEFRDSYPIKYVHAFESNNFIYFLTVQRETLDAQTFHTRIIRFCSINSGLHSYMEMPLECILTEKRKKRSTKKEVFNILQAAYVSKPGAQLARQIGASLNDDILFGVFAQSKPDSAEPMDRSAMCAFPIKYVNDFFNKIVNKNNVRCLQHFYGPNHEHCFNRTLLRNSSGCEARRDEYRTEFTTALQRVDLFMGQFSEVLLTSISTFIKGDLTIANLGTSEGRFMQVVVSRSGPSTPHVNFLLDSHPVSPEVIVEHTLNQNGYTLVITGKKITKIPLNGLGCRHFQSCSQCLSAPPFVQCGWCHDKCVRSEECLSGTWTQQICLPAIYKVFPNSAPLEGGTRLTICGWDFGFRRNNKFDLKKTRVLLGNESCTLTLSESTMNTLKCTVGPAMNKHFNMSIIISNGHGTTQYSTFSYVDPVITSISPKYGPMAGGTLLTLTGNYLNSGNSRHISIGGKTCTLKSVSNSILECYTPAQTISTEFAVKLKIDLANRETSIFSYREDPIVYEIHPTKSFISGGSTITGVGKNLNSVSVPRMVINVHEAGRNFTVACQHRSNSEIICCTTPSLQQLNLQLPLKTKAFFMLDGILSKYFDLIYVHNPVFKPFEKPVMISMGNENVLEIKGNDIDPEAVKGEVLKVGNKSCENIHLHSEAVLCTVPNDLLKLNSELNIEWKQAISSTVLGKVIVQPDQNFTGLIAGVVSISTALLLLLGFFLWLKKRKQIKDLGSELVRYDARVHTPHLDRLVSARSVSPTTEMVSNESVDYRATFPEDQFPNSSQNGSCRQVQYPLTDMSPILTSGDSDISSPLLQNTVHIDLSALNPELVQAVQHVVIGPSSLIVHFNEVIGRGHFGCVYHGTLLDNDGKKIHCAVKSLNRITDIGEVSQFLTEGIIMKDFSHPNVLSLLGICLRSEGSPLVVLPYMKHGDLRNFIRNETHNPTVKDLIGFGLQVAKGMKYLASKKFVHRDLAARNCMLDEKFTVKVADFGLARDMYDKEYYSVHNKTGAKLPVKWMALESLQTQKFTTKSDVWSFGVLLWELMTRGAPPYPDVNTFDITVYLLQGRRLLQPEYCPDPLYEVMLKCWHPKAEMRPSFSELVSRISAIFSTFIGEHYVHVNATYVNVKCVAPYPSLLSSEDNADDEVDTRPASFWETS
# Tyrosine-protein kinase JAK2 (Homo sapiens), sequence (O60674 whole entry, the tested form may be a part): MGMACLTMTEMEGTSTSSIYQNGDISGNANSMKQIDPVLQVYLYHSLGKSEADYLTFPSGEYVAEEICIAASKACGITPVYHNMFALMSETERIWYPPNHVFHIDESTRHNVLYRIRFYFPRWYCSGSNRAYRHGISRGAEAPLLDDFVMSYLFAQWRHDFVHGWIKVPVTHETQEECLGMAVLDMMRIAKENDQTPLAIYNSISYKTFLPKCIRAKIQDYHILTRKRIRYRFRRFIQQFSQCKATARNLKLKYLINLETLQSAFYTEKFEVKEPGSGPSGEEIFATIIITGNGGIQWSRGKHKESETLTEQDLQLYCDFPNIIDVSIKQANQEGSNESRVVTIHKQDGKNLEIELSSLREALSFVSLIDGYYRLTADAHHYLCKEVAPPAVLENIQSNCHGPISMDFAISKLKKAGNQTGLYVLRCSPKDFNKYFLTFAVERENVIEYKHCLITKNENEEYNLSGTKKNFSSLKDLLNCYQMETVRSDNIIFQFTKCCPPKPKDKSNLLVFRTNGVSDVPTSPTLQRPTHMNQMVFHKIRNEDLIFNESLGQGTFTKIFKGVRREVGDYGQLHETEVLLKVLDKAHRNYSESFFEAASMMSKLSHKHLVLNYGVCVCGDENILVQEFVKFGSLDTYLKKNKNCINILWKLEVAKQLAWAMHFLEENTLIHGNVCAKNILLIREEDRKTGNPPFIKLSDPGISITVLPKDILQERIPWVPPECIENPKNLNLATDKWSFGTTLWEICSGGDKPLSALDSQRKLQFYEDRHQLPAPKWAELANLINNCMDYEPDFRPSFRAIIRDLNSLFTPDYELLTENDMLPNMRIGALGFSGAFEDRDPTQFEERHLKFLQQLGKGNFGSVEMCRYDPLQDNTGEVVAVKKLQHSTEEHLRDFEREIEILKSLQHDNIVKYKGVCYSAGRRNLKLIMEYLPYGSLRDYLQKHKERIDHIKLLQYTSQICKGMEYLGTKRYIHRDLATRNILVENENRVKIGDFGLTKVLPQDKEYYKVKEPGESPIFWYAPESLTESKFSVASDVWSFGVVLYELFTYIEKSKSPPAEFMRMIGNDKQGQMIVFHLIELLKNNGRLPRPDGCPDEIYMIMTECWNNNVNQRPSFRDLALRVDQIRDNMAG
# Serine/threonine-protein kinase Chk1 (Homo sapiens), sequence (O14757 whole entry): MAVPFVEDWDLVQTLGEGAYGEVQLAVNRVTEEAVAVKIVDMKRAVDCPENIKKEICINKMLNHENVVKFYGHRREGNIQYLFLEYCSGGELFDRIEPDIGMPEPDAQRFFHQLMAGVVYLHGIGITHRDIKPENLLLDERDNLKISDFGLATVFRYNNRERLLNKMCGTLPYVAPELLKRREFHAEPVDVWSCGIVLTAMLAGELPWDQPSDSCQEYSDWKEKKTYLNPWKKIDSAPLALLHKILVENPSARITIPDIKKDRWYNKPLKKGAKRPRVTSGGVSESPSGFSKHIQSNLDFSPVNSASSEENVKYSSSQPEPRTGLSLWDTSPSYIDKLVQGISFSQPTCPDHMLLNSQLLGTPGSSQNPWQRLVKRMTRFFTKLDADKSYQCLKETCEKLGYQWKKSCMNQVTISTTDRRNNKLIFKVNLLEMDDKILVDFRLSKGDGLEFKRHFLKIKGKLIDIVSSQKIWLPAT
# Macrophage colony-stimulating factor 1 receptor, sequence (P07333 whole entry): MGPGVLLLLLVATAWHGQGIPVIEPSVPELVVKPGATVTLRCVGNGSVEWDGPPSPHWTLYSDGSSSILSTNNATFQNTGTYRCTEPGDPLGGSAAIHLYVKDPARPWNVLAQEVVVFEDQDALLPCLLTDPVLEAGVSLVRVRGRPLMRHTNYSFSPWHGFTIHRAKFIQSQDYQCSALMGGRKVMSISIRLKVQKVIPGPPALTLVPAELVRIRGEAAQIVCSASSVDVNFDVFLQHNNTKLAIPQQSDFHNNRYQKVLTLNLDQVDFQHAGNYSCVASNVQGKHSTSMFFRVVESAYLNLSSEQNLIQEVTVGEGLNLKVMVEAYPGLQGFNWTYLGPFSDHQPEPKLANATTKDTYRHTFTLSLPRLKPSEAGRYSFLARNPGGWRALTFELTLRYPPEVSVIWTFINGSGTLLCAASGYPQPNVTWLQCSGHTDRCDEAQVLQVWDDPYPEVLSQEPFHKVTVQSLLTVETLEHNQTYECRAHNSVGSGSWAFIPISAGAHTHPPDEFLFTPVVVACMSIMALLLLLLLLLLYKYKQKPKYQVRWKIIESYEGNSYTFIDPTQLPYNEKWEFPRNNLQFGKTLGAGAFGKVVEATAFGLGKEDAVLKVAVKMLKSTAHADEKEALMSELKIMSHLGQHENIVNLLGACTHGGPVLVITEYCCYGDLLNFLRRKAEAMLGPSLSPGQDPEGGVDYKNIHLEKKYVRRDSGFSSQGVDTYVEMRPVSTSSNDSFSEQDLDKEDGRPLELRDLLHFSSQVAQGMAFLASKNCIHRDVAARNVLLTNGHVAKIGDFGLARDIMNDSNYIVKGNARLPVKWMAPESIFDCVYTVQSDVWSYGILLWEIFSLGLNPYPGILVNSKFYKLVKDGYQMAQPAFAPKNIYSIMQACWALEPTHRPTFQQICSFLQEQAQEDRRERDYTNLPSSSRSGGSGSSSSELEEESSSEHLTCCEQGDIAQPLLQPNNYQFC
# Dual specificity mitogen-activated protein kinase kinase 1 (Homo sapiens), sequence (Q02750 whole entry): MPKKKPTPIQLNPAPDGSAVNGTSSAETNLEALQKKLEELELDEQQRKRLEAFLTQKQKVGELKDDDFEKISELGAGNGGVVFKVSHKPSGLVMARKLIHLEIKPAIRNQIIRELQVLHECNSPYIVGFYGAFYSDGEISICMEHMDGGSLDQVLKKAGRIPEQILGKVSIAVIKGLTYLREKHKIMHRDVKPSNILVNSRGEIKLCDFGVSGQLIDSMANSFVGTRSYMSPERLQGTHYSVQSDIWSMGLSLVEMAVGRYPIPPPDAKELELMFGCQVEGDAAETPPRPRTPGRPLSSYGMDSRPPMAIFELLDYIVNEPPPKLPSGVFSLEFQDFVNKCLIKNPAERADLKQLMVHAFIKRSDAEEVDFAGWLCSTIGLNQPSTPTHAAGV
compound,measurement,setting,value
Nc1n[nH]c2cccc(C#Cc3cccc(NC(=O)c4ccc(N5CCOCC5)c(C(F)(F)F)c4)c3)c12,pIC50,[1],6.91
same,inhibition,[2],< 30%
same,inhibition,[3],< 30%
same,inhibition,[4],< 30%
same,half-life,[5],3.5 h
same,AUC(0-t) at 8 h,[6],14000 ng·h/mL
same,bioavailability,[7],0.6%
same,Ratio IC50/EC50,Homo sapiens [8],233
same,inhibition,[9],< 30%
same,Activity,[10],Dose-dependent effect
same,inhibition,[11],43.4%
same,pIC50,[12],7.79
same,Ratio IC50,Homo sapiens [13],26.5
same,Cmax,[14],113 ng/mL
same,pIC50,[15],6.27
same,inhibition of growth at 10 µM,CCRF-CEM,89.5%
same,inhibition,[16],< 30%
